± gives the standard deviation of the averaged measurements.
What was measured:
ERLOTINIB = compound: C#Cc1cccc(Nc2ncnc3cc(OCCOC)c(OCCOC)cc23)c1 [ERLOTINIB]; experiment: surviving fraction relative to DMSO-only wells; higher = less growth inhibition; details: exposure time: 5 days
Method in brief: (§1)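 Inhibitors were tested at 0.5, 1, 5, 10, 50, 100, 500 and 1000 nM, applied continuously for five days beginning 24 hours after log-phase tumour cells were seeded at 250–500 per well in 384-well plates. CellTiter-Glo luminescence served as the viability measure, expressed as surviving fraction against the median of DMSO-only wells. Each line, screened three times, was kept only with replicate Pearson r >0.7 and median Z' >0.3.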

[1] = compound: Cc1nc(Nc2n[nH]c3c2CN(C(=O)N[C@H](CN(C)C)c2ccccc2)C3(C)C)c2sccc2n1; experiment: as above; details: exposure time: 5 days
Method in brief: as §1

Test System | surviving fraction (ERLOTINIB; 0.5 nM) | surviving fraction (ERLOTINIB; 1 nM) | surviving fraction (ERLOTINIB; 5 nM) | surviving fraction (ERLOTINIB; 10 nM) | surviving fraction (ERLOTINIB; 50 nM) | surviving fraction (ERLOTINIB; 100 nM) | surviving fraction (ERLOTINIB; 500 nM) | surviving fraction (ERLOTINIB; 1000 nM) | surviving fraction ([1]; 0.5 nM) | surviving fraction ([1]; 1 nM) | surviving fraction ([1]; 5 nM) | surviving fraction ([1]; 10 nM) | surviving fraction ([1]; 50 nM) | surviving fraction ([1]; 100 nM) | surviving fraction ([1]; 500 nM) | surviving fraction ([1]; 1000 nM)
SG31 HEADNECK | 1.29 ± 0.38 | 1.29 ± 0.13 | 1.03 ± 0.11 | 0.863 ± 0.092 | 1.08 ± 0.18 | 0.762 ± 0.059 | 0.716 ± 0.2 | 0.667 ± 0.21 | 0.947 ± 0.073 | 1.01 ± 0.088 | 0.671 ± 0.076 | 0.909 ± 0.17 | 0.456 ± 0.0092 | 0.609 ± 0.067 | 0.241 ± 0.024 | 0.344 ± 0.033
SG32 HEADNECK | 1.14 ± 0.11 | 1.11 ± 0.092 | 1.1 ± 0.29 | 1.03 ± 0.18 | 1.12 ± 0.14 | 1.11 ± 0.092 | 0.795 ± 0.067 | 1.26 ± 0.28 | 1.04 ± 0.29 | 0.756 ± 0.027 | 0.363 ± 0.013 | 0.247 ± 0.017 | 0.206 ± 0.014 | 0.148 ± 0.021 | 0.0707 ± 0.012 | 0.041 ± 0.011
SG43 HEADNECK | 1.06 ± 0.2 | 0.978 ± 0.049 | 0.882 ± 0.18 | 0.734 ± 0.17 | 0.689 ± 0.13 | 0.458 ± 0.16 | 0.265 ± 0.032 | 0.335 ± 0.097 | 1.23 ± 0.11 | 1.11 ± 0.22 | 0.921 ± 0.13 | 0.784 ± 0.34 | 1.14 ± 0.2 | 0.959 ± 0.16 | 0.971 ± 0.055 | 1.35 ± 0.2
SIHA CERVIX | 1.1 ± 0.05 | 1.075 ± 0.0096 | 1.12 ± 0.074 | – | 1.1 ± 0.067 | 1.08 ± 0.099 | – | 1.06 ± 0.038 | 0.827 ± 0.039 | 0.689 ± 0.052 | 0.555 ± 0.023 | 0.487 ± 0.026 | 0.419 ± 0.0098 | 0.391 ± 0.0081 | 0.262 ± 0.031 | 0.146 ± 0.017
SJSA1 BONE | 1.69 ± 0.11 | 0.267 ± 0.022 | 1.55 ± 0.035 | 0.189 ± 0.0056 | 1.02 ± 0.032 | 1.76 ± 0.13 | 1.75 ± 0.1 | – | 0.972 ± 0.02 | 0.901 ± 0.011 | 0.747 ± 0.018 | 0.696 ± 0.057 | 0.448 ± 0.015 | 0.393 ± 0.025 | 0.289 ± 0.007 | 0.243 ± 0.0072
SKBR3 BREAST | 1.11 ± 0.13 | 1.1 ± 0.15 | 1.07 ± 0.15 | 1.15 ± 0.1 | 1.11 ± 0.024 | 1.05 ± 0.08 | 1.04 ± 0.15 | 0.874 ± 0.06 | 0.895 ± 0.11 | 0.834 ± 0.079 | 0.49 ± 0.027 | 0.498 ± 0.026 | 0.454 ± 0.063 | 0.419 ± 0.045 | 0.344 ± 0.021 | 0.1 ± 0.011
SNU475 LIVER | 1.01 ± 0.03 | – | 0.974 ± 0.064 | 0.982 ± 0.044 | 0.957 ± 0.03 | 1 ± 0.047 | 0.909 ± 0.012 | 0.88 ± 0.057 | 0.974 ± 0.027 | 0.918 ± 0.067 | 0.724 ± 0.06 | 0.633 ± 0.032 | 0.509 ± 0.0096 | 0.467 ± 0.024 | 0.393 ± 0.015 | 0.244 ± 0.015
SUM44 BREAST | 1.31 ± 0.45 | 1.19 ± 0.29 | 1.28 ± 0.4 | 1.21 ± 0.26 | 1.34 ± 0.49 | 1.32 ± 0.36 | 1.39 ± 0.53 | 1.29 ± 0.38 | 1.08 ± 0.03 | 1.05 ± 0.065 | 1 ± 0.039 | 0.972 ± 0.041 | 0.983 ± 0.059 | 0.929 ± 0.038 | 0.735 ± 0.023 | 0.541 ± 0.023
SUM149 BREAST | 1.1 ± 0.12 | 1.11 ± 0.12 | 1.01 ± 0.13 | 0.966 ± 0.082 | 0.922 ± 0.13 | 0.75 ± 0.03 | 0.454 ± 0.042 | 0.434 ± 0.033 | 0.863 ± 0.011 | 1.01 ± 0.02 | 0.178 ± 0.014 | 0.365 ± 0.037 | 0.124 ± 0.0069 | 0.145 ± 0.011 | 0.0783 ± 0.0083 | 0.117 ± 0.013
SUM149.B1*.S BREAST | 1.11 ± 0.071 | 1.12 ± 0.021 | 1.09 ± 0.065 | 1.09 ± 0.017 | 1.15 ± 0.048 | 1.08 ± 0.013 | 1.07 ± 0.069 | 1.08 ± 0.079 | 1.05 ± 0.021 | 1.04 ± 0.013 | 0.473 ± 0.02 | 0.817 ± 0.017 | 0.279 ± 0.032 | 0.748 ± 0.032 | 0.24 ± 0.0095 | 0.691 ± 0.046
SUM159 BREAST | 1.11 ± 0.039 | 1.1 ± 0.033 | 1.09 ± 0.023 | 1.07 ± 0.024 | 1.07 ± 0.013 | 1.05 ± 0.015 | 1.07 ± 0.012 | 1.06 ± 0.016 | 1.13 ± 0.2 | 1.15 ± 0.2 | 1.15 ± 0.21 | 1.1 ± 0.18 | 0.554 ± 0.027 | 0.407 ± 0.026 | 0.369 ± 0.028 | 0.292 ± 0.0093
SYO1 SYNOVIAL | 1.02 ± 0.016 | 1.04 ± 0.034 | 1.03 ± 0.017 | 0.986 ± 0.067 | 1.01 ± 0.023 | 1.01 ± 0.015 | 1.02 ± 0.028 | – | 0.65 ± 0.017 | 0.486 ± 0.01 | 0.269 ± 0.023 | 0.214 ± 0.0035 | 0.166 ± 0.016 | 0.129 ± 0.013 | 0.0548 ± 0.0036 | 0.0347 ± 0.0023
T47D BREAST | 1.13 ± 0.059 | 1.08 ± 0.052 | 1.13 ± 0.084 | 1.09 ± 0.028 | 1.18 ± 0.039 | 1.17 ± 0.048 | 1.16 ± 0.084 | 1.12 ± 0.039 | 1.16 ± 0.034 | 1.12 ± 0.025 | 0.845 ± 0.033 | 0.879 ± 0.023 | 0.887 ± 0.032 | 0.87 ± 0.014 | 0.776 ± 0.013 | 0.528 ± 0.04
U2OS BONE | 1.06 ± 0.016 | – | – | – | 1.11 ± 0.015 | 1.04 ± 0.028 | 1.02 ± 0.014 | – | 0.974 ± 0.038 | 0.901 ± 0.058 | 0.631 ± 0.016 | 0.453 ± 0.025 | 0.188 ± 0.025 | 0.142 ± 0.015 | 0.075 ± 0.0027 | 0.0633 ± 0.0015
VCAP PROSTATE | 1 ± 0.042 | 0.988 ± 0.16 | 1.17 ± 0.089 | 1.15 ± 0.057 | 1.13 ± 0.093 | 1.08 ± 0.084 | 1.11 ± 0.05 | 1.09 ± 0.093 | 0.665 ± 0.11 | 0.496 ± 0.006 | 0.428 ± 0.025 | 0.398 ± 0.025 | 0.451 ± 0.084 | 0.397 ± 0.022 | 0.245 ± 0.036 | 0.0417 ± 0.0063
VP229 BREAST | 1.05 ± 0.087 | 1.21 ± 0.12 | 1.17 ± 0.14 | 1.1 ± 0.086 | 1.06 ± 0.091 | 0.825 ± 0.048 | 0.568 ± 0.048 | 0.413 ± 0.06 | 1.23 ± 0.085 | 1.15 ± 0.18 | 0.684 ± 0.099 | 0.597 ± 0.089 | 0.484 ± 0.055 | 0.386 ± 0.036 | 0.301 ± 0.031 | 0.311 ± 0.026
YAMATO SYNOVIAL | 1.28 ± 0.12 | 1.29 ± 0.088 | 1.43 ± 0.079 | 1.26 ± 0.036 | 1.39 ± 0.071 | 1.35 ± 0.014 | 1.31 ± 0.074 | 1.2 ± 0.15 | 0.784 ± 0.03 | 1.19 ± 0.074 | 0.432 ± 0.036 | 1.35 ± 0.091 | 0.354 ± 0.0056 | 1.42 ± 0.17 | 0.353 ± 0.024 | 1.39 ± 0.074
ZR751 BREAST | 1.01 ± 0.04 | 1.29 ± 0.17 | 1.14 ± 0.14 | 1.05 ± 0.087 | 0.926 ± 0.14 | 0.881 ± 0.14 | 0.71 ± 0.18 | 0.766 ± 0.045 | 0.872 ± 0.058 | 0.818 ± 0.052 | 0.575 ± 0.056 | 0.515 ± 0.0069 | 0.427 ± 0.029 | 0.463 ± 0.026 | 0.492 ± 0.041 | 0.462 ± 0.037
